Assay results: patent publication US7588756B1, “Treatment of cardiac power failure” (priority 1999, dated 2009)

What was measured:
[1] = clinical studies; cited from earlier work
[2] = system: saponin-semipermeabilized skeletal muscle fibres of the rat; assay: Isometric force of saponin-semipermeabilized (skinned) skeletal muscle fibres, indirect measure of Ca2+ release from the SR; conditions: for Ca2+ sensitivity of the contractile apparatus / increase of maximum force development compared with the control: slow skeletal musculature (M. soleus); for Ca2+ sensitivity of the contractile apparatus: 5-10 μM; for increase of maximum force development compared with the control: equimolar concentration 5-10 μM
Procedure: The aim of this test procedure was therefore to examine what functional significance these sequences—in the form of synthetic peptides—have compared with the whole protein for the regulation of the Ca^2+ release from the SR. The Ca^2+ release was measured indirectly on saponin-semipermeabilized skeletal muscle fibres of the rat over an isometric force gradient. The measurement of the isometric force before and after addition of S100A1 peptide/protein served as a control.

[3] = system: neonatal rat cardiomyocytes; assay: Intracellular Ca2+ transients in cultivated neonatal rat cardiomyocytes after co-cultivation with recombinant S100A1; type: cell-based; conditions: S100A1 1 μM to 10 μM at two-day intervals, 7 days
Procedure: Neonatal rat hearts were removed from 3-day-old rats, ventricles separated from the atria and stored coarse-ground on ice in ADS buffer (6.8 g NaCl, 4.76 g HEPES, 0.12 g NaH2PO4, 1 g glucose, 0.4 g KCl, 0.1 g MgSO4 and 1000 ml H2O). In a bioreactor (Wheaton® container), the cells were then separated from the tissue assembly by means of collagenase digestion (108 U/mg/ml collagenase, Worthington, USA), and the released cells separated over a density gradient (Percoll, Pharmacia®) by centrifugation. The cardiomyocyte fraction was resuspended in cell culture medium (DMEM+10% newborn calf serum) and plated in a density of approx. 100,000 cardiomyocytes per well on 24-well cell culture plates. After 24 hours culture at 37° C. and 5% CO2, recombinant S100A1 was added to the cell culture medium at two-day intervals in concentrations of 1 μM to 10 μM. […] The intracellular Ca^2+ transients were then detected and quantified by means of inverse fluorescence microscopy (Olympus OSP 3®) under both rest conditions and electrical field stimulation (PHYWE®-bioelectrical measurement unit; frequencies of 30-300 bpm). […] The changes in the Ca^2+ concentration per time unit were measured as a quotient from the time until the signal maximum and the signal amplitude (+dc/dt) were reached or as a quotient of the time until the half amplitude and the signal amplitude (−dc/dt) were reached. […]

[4] = system: microtubuli and intermediate filaments; conditions: biochemical reconstitutive assays; cited from earlier work
[5] = system: protein kinase C; conditions: cited from earlier work

In the case of `COc1ccc(-c2nc3ccc(C4=NNC(=O)CC4C)cc3[nH]2)cc1` (stereo not shown) [pimobendan], the “improvement of the heart function compared with placebo” value [1] is given as “no significant improvement of the heart function”.
In the case of “combination of the three peptides: Combination of the N-terminal, hinge region and C-terminal synthetic S100A1 peptides (peptide 1 GSELETAMETLINVF; peptide 2 LSGFLDAQKDVDA; peptide 3 YVVLVAALTVA)”, the “Ca2+ sensitivity of the contractile apparatus” value [2] is reported as “unchanged” and the “increase of maximum force development compared with the control” value [2] is reported as 49%±6%.
In the case of “combination of “C-terminal” peptide and the “hinge region”: Combination of the C-terminal and hinge region synthetic S100A1 peptides (peptide 1 LSGFLDAQKDVDA; peptide 2 YVVLVAALTVA)”, the “increase of isometric force development” value ([2]; before versus after addition of peptide) is reported as 15%±4%.
In the case of “recombinant S100A1: Human recombinant Ca2+-binding protein S100A1 (SEQ ID NO: 2) prepared in genetically modified E. coli”, the “rise in the Ca2+ concentration per time unit in the systole (+dc/dt), increase in comparison with the control cell population” value ([3]; p<0.0002) is listed as 3 times, the “drop in the Ca2+ concentration per time unit in the diastole (-dc/dt), acceleration in comparison with the control cell population” value ([3]; p<0.0003) is listed as 2.2 times and the “polymerization of microtubuli and of intermediate filaments” value [4] is listed as “inhibition”. The “Ca2+ sensitivity of the contractile apparatus” value [2] was “unchanged”, the “increase of maximum force development compared with the control” value [2] was 52%±7% and the “effect on protein kinase C” value [5] was “inhibition”.
